biological target: T1, human GPR40 (Homo sapiens, UniProt O14842); assay: Evaluation of human GPR40 agonist activity with increase in intracellular Ca2+ concentration as an index (FLIPR Tetra); assay type: cell-based; details: test compound 1 μM; CHO(dhfr-) cells stably expressing human GPR40; 100% = activity of 1 μM WO2009/048527 Example 99.2, 0% = DMSO
T1 construct: expressed in transfected cells
Protocol: Evaluation of human GPR40 agonist activity with increase in intracellular Ca^2+ concentration as an index
CHO(dhfr-) cells that stably expressed human GPR40 were suspended in MEMα (Nikken Bio Medical Laboratory) containing 10% dialysis serum (GEMINI BIO-PRODUCTS), 10 mM HEPES (Invitrogen), 100 U/mL penicillin, 100 μg/mL streptomycin (Invitrogen), and plated on a 384 well black/clear cell culture plate at 10,000 cells/well. After culture overnight in a CO2 incubator at 37° C., the culture supernatant was removed, and a loading buffer [dye attached to Calcium 5 Assay Kit (Molecular Devices) was dissolved in an assay buffer (20 mM HEPES, 0.2% fatty acid-free BSA (Sigma-Aldrich), 2.5 mM probenecid (DOJINDO)-containing HBSS (Invitrogen)) added with 0.025% Cremophor EL (DOJINDO)] was added at 37.5 μL/well. After incubation in a CO2 incubator at 37° C. for 1 hr, the cells were stood at room temperature for 15 min, an assay buffer containing the test compound at a final concentration of 1 μM was added at 12.5 μL/well in FLIPR Tetra (Molecular Devices), and the fluorescence amount was successively measured. Human GPR40 agonist activity calculated using an increase in the intracellular Ca^2+ concentration as an index, wherein the activity of 1 μM of the compound described in WO 2009/048527 (WO2009/048527 Example 99.2) was 100%, and the activity when DMSO was added instead of the test compound was 0%.

T1 sequence (O14842 whole entry): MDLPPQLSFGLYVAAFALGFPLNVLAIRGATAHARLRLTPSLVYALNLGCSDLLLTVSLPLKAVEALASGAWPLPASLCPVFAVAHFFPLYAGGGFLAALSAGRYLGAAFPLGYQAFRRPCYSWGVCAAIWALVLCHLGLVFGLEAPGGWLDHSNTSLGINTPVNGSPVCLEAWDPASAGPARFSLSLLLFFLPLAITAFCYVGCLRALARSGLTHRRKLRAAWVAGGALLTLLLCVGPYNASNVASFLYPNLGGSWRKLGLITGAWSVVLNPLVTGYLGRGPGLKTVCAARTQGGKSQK

| SMILES | activation at 1 µM | Human GPR40 agonist activity (increase in intracellular Ca2+ concentration) |
| --- | --- | --- |
| COc1ccc(F)c(-c2ccc(OCc3cccc(OCC(=O)O)c3)nc2CC(C)(C)C)c1 [Example 1, (3-(((6-(2,2-dimethylpropyl)-5-(2-fluoro-5-methoxyphenyl)pyridin-2-yl)oxy)methyl)phenoxy)acetic acid] | 98% |  |
| COc1ccc(F)c(-c2ccc(OCc3cccc(OCC(=O)O)c3)cc2CC(C)(C)C)c1 [Example 2, (3-(((2-(2,2-dimethylpropyl)-2′-fluoro-5′-methoxybiphenyl-4-yl)oxy)methyl)phenoxy)acetic acid] | 108% |  |
| COc1ccc(F)c(-c2ccc(OCc3cccc(C(CC(=O)O)C4CC4)c3)cc2CC(C)(C)C)c1 (stereo not shown) [Example 3, 3-cyclopropyl-3-(3-(((2-(2,2-dimethylpropyl)-2′-fluoro-5′-methoxybiphenyl-4-yl)oxy)methyl)phenyl)propanoic acid] | 103% |  |
| COc1ccc(F)c(-c2ccc(OCc3cccc(C(CC(=O)O)C4CC4)c3)nc2CC(C)(C)C)c1 (stereo not shown) [Example 4, 3-cyclopropyl-3-(3-(((6-(2,2-dimethylpropyl)-5-(2-fluoro-5-methoxyphenyl)pyridin-2-yl)oxy)methyl)phenyl)propanoic acid] | 110% |  |
| COc1ccc(F)c(-c2ccc(OCc3cccc(C(CC(=O)O)C4CC4)c3)nc2CC(C)(C)C)c1 (stereo not shown) [Example 6, sodium 3-cyclopropyl-3-(3-(((6-(2,2-dimethylpropyl)-5-(2-fluoro-5-methoxyphenyl)pyridin-2-yl)oxy)methyl)phenyl)propanoate] |  | 98% |
| COc1ccc(F)c(-c2ccc(OCc3cccc(CCC(=O)O)c3)cc2CC(C)(C)C)c1 [Example 7, 3-(3-(((2-(2,2-dimethylpropyl)-2′-fluoro-5′-methoxybiphenyl-4-yl)oxy)methyl)phenyl)propanoic acid] | 108% |  |
| COc1ccc(F)c(-c2ccc(NCc3cccc(C(CC(=O)O)C4CC4)c3)cc2CC(C)(C)C)c1 (stereo not shown) [Example 8, 3-cyclopropyl-3-(3-(((2-(2,2-dimethylpropyl)-2′-fluoro-5′-methoxybiphenyl-4-yl)amino)methyl)phenyl)propanoic acid] | 98% |  |
| COc1ccc(F)c(-c2ccc(N(C)Cc3cccc(C(CC(=O)O)C4CC4)c3)cc2CC(C)(C)C)c1 (stereo not shown) [Example 9, 3-cyclopropyl-3-(3-(((2-(2,2-dimethylpropyl)-2′-fluoro-5′-methoxybiphenyl-4-yl)(methyl)amino)methyl)phenyl)propanoic acid] | 103% |  |
| COc1ccc(F)c(-c2ccc(N(Cc3cccc(C(CC(=O)O)C4CC4)c3)CC(F)(F)F)cc2CC(C)(C)C)c1 (stereo not shown) [Example 11, 3-cyclopropyl-3-(3-(((2-(2,2-dimethylpropyl)-2′-fluoro-5′-methoxybiphenyl-4-yl)(2,2,2-trifluoroethyl)amino)methyl)phenyl)propanoic acid] | 106% |  |
| COc1ccc(F)c(-c2ccc(SCc3cccc(C(CC(=O)O)C4CC4)c3)cc2CC(C)(C)C)c1 (stereo not shown) [Example 12, 3-cyclopropyl-3-(3-(((2-(2,2-dimethylpropyl)-2′-fluoro-5′-methoxybiphenyl-4-yl)sulfanyl)methyl)phenyl)propanoic acid] | 113% |  |
| COc1ccc(F)c(-c2ccc(OCc3cccc(C(CC(=O)O)C4CC4)c3)cc2-c2ccc(C(F)(F)F)cc2)c1 (stereo not shown) [Example 17, 3-cyclopropyl-3-(3-(((2-fluoro-5-methoxy-4″-(trifluoromethyl)-1,1′:2′,1″-terphenyl-4′-yl)oxy)methyl)phenyl)propanoic acid] | 98% |  |
| COc1ccc(F)c(-c2ccc(OCc3cccc(C(CC(=O)O)C4CC4)c3)cc2-c2cnc(C)s2)c1 (stereo not shown) [Example 19, 3-cyclopropyl-3-(3-(((2′-fluoro-5′-methoxy-2-(2-methyl-1,3-thiazol-5-yl)biphenyl-4-yl)oxy)methyl)phenyl)propanoic acid] | 120% |  |
| COc1ccc(F)c(-c2ccc(OCc3cccc(C(CC(=O)O)C4CC4)c3)c(CCCC(C)(C)C)c2)c1 (stereo not shown) [Example 21, 3-cyclopropyl-3-(3-(((3-(4,4-dimethylpentyl)-2′-fluoro-5′-methoxybiphenyl-4-yl)oxy)methyl)phenyl)propanoic acid] | 103% |  |
| COc1ccc(F)c(-c2ncc(OCc3cccc(C(CC(=O)O)C4CC4)c3)cc2CC(C)(C)C)c1 (stereo not shown) [Example 22, 3-cyclopropyl-3-(3-(((5-(2,2-dimethylpropyl)-6-(2-fluoro-5-methoxyphenyl)pyridin-3-yl)oxy)methyl)phenyl)propanoic acid] | 99% |  |
| COc1ccc(F)c(-c2ccc(OCc3cc(C(CC(=O)O)C4CC4)ccn3)cc2CC(C)(C)C)c1 (stereo not shown) [Example 24, 3-cyclopropyl-3-(2-(((2-(2,2-dimethylpropyl)-2′-fluoro-5′-methoxybiphenyl-4-yl)oxy)methyl)pyridin-4-yl)propanoic acid] | 106% |  |
| COc1ccc(F)c(-c2ccc(OCc3cc(C(CC(=O)O)C4CC4)ccn3)nc2CC(C)(C)C)c1 (stereo not shown) [Example 25, 3-cyclopropyl-3-(2-(((6-(2,2-dimethylpropyl)-5-(2-fluoro-5-methoxyphenyl)pyridin-2-yl)oxy)methyl)pyridin-4-yl)propanoic acid] | 108% |  |
| COc1ccc(F)c(-c2ccc(OCc3cccc(C(CC(=O)O)C4CC4)c3)cc2CC(C)(C)C#N)c1 (stereo not shown) [Example 26, 3-(3-(((2-(2-cyano-2-methylpropyl)-2′-fluoro-5′-methoxybiphenyl-4-yl)oxy)methyl)phenyl)-3-cyclopropylpropanoic acid] | 105% |  |
| COc1ccc(F)c(-c2ccc(OCc3cc(C(CC(=O)O)C4CC4)ccn3)cc2CC(C)(C)C#N)c1 (stereo not shown) [Example 27, 3-(2-(((2-(2-cyano-2-methylpropyl)-2′-fluoro-5′-methoxybiphenyl-4-yl)oxy)methyl)pyridin-4-yl)-3-cyclopropylpropanoic acid] | 119% |  |
| COc1ccc(F)c(-c2ccc(OCc3cccc(C(CC(=O)O)C4CC4)c3)cc2-c2ccc(C#N)s2)c1 (stereo not shown) [Example 28, 3-(3-(((2-(5-cyano-2-thienyl)-2′-fluoro-5′-methoxybiphenyl-4-yl)oxy)methyl)phenyl)-3-cyclopropylpropanoic acid] | 95% |  |
| COc1ccc(F)c(-c2ccc(OCc3cc(C(CC(=O)O)C4CC4)ncn3)nc2CC(C)(C)C)c1 (stereo not shown) [Example 30, 3-cyclopropyl-3-(6-(((6-(2,2-dimethylpropyl)-5-(2-fluoro-5-methoxyphenyl)pyridin-2-yl)oxy)methyl)pyrimidin-4-yl)propanoic acid] | 103% |  |
| COc1ccc(F)c(-c2ccc(OCc3cc(C(CC(=O)O)C4CC4)ncn3)cc2CC(C)(C)C)c1 (stereo not shown) [Example 31, 3-cyclopropyl-3-(6-(((2-(2,2-dimethylpropyl)-2′-fluoro-5′-methoxybiphenyl-4-yl)oxy)methyl)pyrimidin-4-yl)propanoic acid] | 108% |  |
| COc1ccc(F)c(-c2ccc(C(F)Cc3cccc(CCC(=O)O)c3)nc2CC(C)(C)C)c1 (stereo not shown) [Example 36, 3-(3-(2-(6-(2,2-dimethylpropyl)-5-(2-fluoro-5-methoxyphenyl)pyridin-2-yl)-2-fluoroethyl)phenyl)propanoic acid] | 102% |  |
| COc1ccc(F)c(-c2ccc(OCc3cccc(C(CC(=O)O)C4CC4)c3)cc2OCC(C)(C)C)c1 (stereo not shown) [Example 38, 3-cyclopropyl-3-(3-(((2-(2,2-dimethylpropoxy)-2′-fluoro-5′-methoxybiphenyl-4-yl)oxy)methyl)phenyl)propanoic acid] | 111% |  |
| COc1ccc(F)c(-c2ccc(OCc3cccc(C(CC(=O)O)C4CCCC4)c3)cc2CC(C)(C)C)c1 (stereo not shown) [Example 39, 3-cyclopentyl-3-(3-(((2-(2,2-dimethylpropyl)-2′-fluoro-5′-methoxybiphenyl-4-yl)oxy)methyl)phenyl)propanoic acid] | 105% |  |
| COc1ccc(F)c(-c2ccc(OCc3cccc(C(CC(=O)O)C4CCCCC4)c3)cc2CC(C)(C)C)c1 (stereo not shown) [Example 40, 3-cyclohexyl-3-(3-(((2-(2,2-dimethylpropyl)-2′-fluoro-5′-methoxybiphenyl-4-yl)oxy)methyl)phenyl)propanoic acid] | 114% |  |
| COc1ccc(F)c(-c2ccc(OCc3cccc(C(CC(=O)O)C4CC4)c3)cc2CC2(C#N)CCCC2)c1 (stereo not shown) [Example 41, 3-(3-(((2-((1-cyanocyclopentyl)methyl)-2′-fluoro-5′-methoxybiphenyl-4-yl)oxy)methyl)phenyl)-3-cyclopropylpropanoic acid] | 101% |  |
| COc1ccc(F)c(-c2ccc(OCc3cccc(C(CC(=O)O)C4CCC4)c3)cc2CC(C)(C)C)c1 (stereo not shown) [Example 42, 3-cyclobutyl-3-(3-(((2-(2,2-dimethylpropyl)-2′-fluoro-5′-methoxybiphenyl-4-yl)oxy)methyl)phenyl)propanoic acid] | 104% |  |
| C=CCCC(CC(=O)O)c1cccc(COc2ccc(-c3cc(OC)ccc3F)c(CC(C)(C)C)c2)c1 (stereo not shown) [Example 43, 3-(3-(((2-(2,2-dimethylpropyl)-2′-fluoro-5′-methoxybiphenyl-4-yl)oxy)methyl)phenyl)hept-6-enoic acid] | 107% |  |

From patent US9382188B2, “Aromatic ring compound” (TAKEDA PHARMACEUTICAL COMPANY LIMITED, priority 2012, dated 2016)
